Earlier results on 11 compounds are cited in PMC8513935.

Each structure is given as a SMILES string.

Data set [1] is described as follows: experimental, compiled by the authors from the literature (the ESI cites the sources).
Data set [2] in a line: derived by the authors as gas->solvent minus gas->water (a hypothetical dry solvent; the ESI), not a two-phase measurement.
Data set [3] in a line: log P octanol/water from commercial databases, averaged (the ESI). The settings on record: Octanol (wet), 25 C.

As to `CCCCCCCCl`, the log K of transfer, gas to solvent is 4.21 log10 K in data set [1] (Hexadecane, 25 C) and -0.21 log10 K in data set [1] (Water, 25 C). The log K of transfer, water to solvent in data set [2] (Hexadecane, 25 C) is 4.42 log10 K.

Regarding `C1CCNC1`, the log K of transfer, water to solvent in data set [3] was 0.465 log10 K.

Take `Oc1cccc(F)c1`: the log K of transfer, gas to solvent is 3.84 log10 K in data set [1] (Hexadecane, 25 C) and 4.58 log10 K in data set [1] (Water, 25 C). Moreover, in data set [2] (Hexadecane, 25 C), the log K of transfer, water to solvent is -0.738 log10 K.

In the case of `CCCCCCCCCCCCO`, the log K of transfer, gas to solvent in data set [1] (Hexadecane, 25 C) is 6.62 log10 K; in data set [1] (Hexane, 25 C), 6.79 log10 K; in data set [1] (Water, 25 C), 2.44 log10 K. Moreover, the log K of transfer, water to solvent in data set [2] (Hexadecane, 25 C) was 4.18 log10 K; in data set [2] (Hexane, 25 C), 4.35 log10 K.

With `c1ccc2ncccc2c1`, the log K of transfer, gas to solvent in data set [1] (Chloroform, 25 C) is 6.98 log10 K; in data set [1] (Hexadecane, 25 C), 5.45 log10 K; in data set [1] (Water, 25 C) it was 4.2 log10 K. For the same compound, the log K of transfer, water to solvent in data set [2] (Chloroform, 25 C) was 2.78 log10 K; in data set [2] (Hexadecane, 25 C), 1.26 log10 K.

On to `NC1CCCCC1`, for which the log K of transfer, gas to solvent in data set [1] (Hexadecane, 25 C) is 3.79 log10 K; in data set [1] (Water, 25 C) it was 3.37 log10 K. Besides, the log K of transfer, water to solvent in data set [2] (Hexadecane, 25 C) is 0.426 log10 K.

Regarding `CCSC`, the log K of transfer, gas to solvent in data set [1] (Hexadecane, 25 C) was 2.37 log10 K; in data set [1] (Water, 25 C), 1.1 log10 K. In addition, the log K of transfer, water to solvent in data set [2] (Hexadecane, 25 C) was 1.27 log10 K.

As for `CNC(C)=O`, the log K of transfer, gas to solvent in data set [1] (Hexadecane, 25 C) was 2.97 log10 K; in data set [1] (Water, 25 C), 6.88 log10 K. In addition, the log K of transfer, water to solvent in data set [2] (Hexadecane, 25 C) was -3.9 log10 K.

With `c1ccncc1`, the log K of transfer, gas to solvent in data set [1] (1,2-Dichloroethane, 25 C) is 4.16 log10 K; in data set [1] (2-Methylpropan-1-ol, 25 C), 4.16 log10 K; in data set [1] (2-Methylpropan-2-ol, 25 C), 3.96 log10 K; in data set [1] (Benzene, 25 C) it was 3.87 log10 K; in data set [1] (Butan-1-ol, 25 C), 3.95 log10 K; in data set [1] (Butan-2-ol, 25 C), 4.13 log10 K. In addition, the log K of transfer, gas to solvent in data set [1] (Butanone, 25 C) was 3.94 log10 K; in data set [1] (CCl4, 25 C) it was 3.77 log10 K; in data set [1] (Chloroform, 25 C) it was 4.73 log10 K; in data set [1] (Cyclohexane, 25 C), 3.03 log10 K; in data set [1] (Ethanol, 25 C), 4.18 log10 K; in data set [1] (Hexadecane, 25 C) it was 3.02 log10 K. Further, the log K of transfer, gas to solvent is 3.07 log10 K in data set [1] (Hexane, 25 C); 3.99 log10 K in data set [1] (Propan-1-ol, 25 C); 3.86 log10 K in data set [1] (Propan-2-ol, 25 C); 3.97 log10 K in data set [1] (Propanone, 25 C); 3.76 log10 K in data set [1] (Toluene, 25 C); 3.44 log10 K in data set [1] (Water, 25 C). For the same compound, the log K of transfer, water to solvent was 0.72 log10 K in data set [2] (1,2-Dichloroethane, 25 C); 0.72 log10 K in data set [2] (2-Methylpropan-1-ol, 25 C); 0.52 log10 K in data set [2] (2-Methylpropan-2-ol, 25 C); 0.53 log10 K in data set [2] (Acetone, 25 C); 0.43 log10 K in data set [2] (Benzene, 25 C); 0.51 log10 K in data set [2] (Butan-1-ol, 25 C). Further, the log K of transfer, water to solvent in data set [2] (Butan-2-ol, 25 C) is 0.69 log10 K; in data set [2] (Butanone, 25 C), 0.5 log10 K; in data set [2] (CCl4, 25 C), 0.33 log10 K; in data set [2] (Chloroform, 25 C) it was 1.29 log10 K; in data set [2] (Cyclohexane, 25 C) it was -0.41 log10 K; in data set [2] (Ethanol, 25 C) it was 0.74 log10 K. The log K of transfer, water to solvent in data set [2] (Hexadecane, 25 C) was -0.418 log10 K; in data set [2] (Hexane, 25 C) it was -0.37 log10 K; in data set [2] (Propan-1-ol, 25 C), 0.55 log10 K; in data set [2] (Propan-2-ol, 25 C), 0.42 log10 K; in data set [2] (Toluene, 25 C), 0.32 log10 K.

Take `CCCCCN`: the log K of transfer, gas to solvent in data set [1] (Hexadecane, 25 C) was 3.14 log10 K; in data set [1] (Water, 25 C), 3 log10 K. Moreover, the log K of transfer, water to solvent in data set [2] (Hexadecane, 25 C) is 0.139 log10 K.

Regarding `CCCC`, the log K of transfer, gas to solvent was 1.49 log10 K in data set [1] (2-Methylpropan-1-ol, 25 C); 1.52 log10 K in data set [1] (2-Methylpropan-2-ol, 25 C); 1.48 log10 K in data set [1] (3-Methylbutan-1-ol, 25 C); 1.37 log10 K in data set [1] (Butan-1-ol, 25 C); 1.69 log10 K in data set [1] (Butanone, 25 C); 1.96 log10 K in data set [1] (CCl4, 25 C). Moreover, the log K of transfer, gas to solvent is 1.7 log10 K in data set [1] (Chlorobenzene, 25 C); 2.1 log10 K in data set [1] (Cyclohexane, 25 C); 1.79 log10 K in data set [1] (Di-n-butyl ether, 25 C); 1.4 log10 K in data set [1] (Ethanol, 25 C); 1.43 log10 K in data set [1] (Heptan-1-ol, 25 C); 1.61 log10 K in data set [1] (Hexadecane, 25 C). For the same compound, the log K of transfer, gas to solvent was 1.87 log10 K in data set [1] (Hexane, 25 C); 1.27 log10 K in data set [1] (Methanol, 25 C); 1.53 log10 K in data set [1] (Octan-1-ol, 25 C); 1.49 log10 K in data set [1] (Pentan-1-ol, 25 C); 1.45 log10 K in data set [1] (Propan-1-ol, 25 C); 1.49 log10 K in data set [1] (Propan-2-ol, 25 C). The log K of transfer, gas to solvent in data set [1] (Propanone, 25 C) is 1.56 log10 K; in data set [1] (Water, 25 C), -1.52 log10 K. The log K of transfer, water to solvent in data set [3] was 2.89 log10 K.
